Assay results from patent US11944593B2, “Myrcene-containing complex mixtures targeting TRPV1” (GBS GLOBAL BIOPHARMA, INC., priority 2017, dated 2024).
Values belong to the molecule of their own block, whether it stands above or below them.

Legend:
Format in all cases: cell-based
[1] = target: T1, TRPV1 (Rattus norvegicus, UniProt O35433); assay: TRPV1-mediated calcium flux (Fluo-4) in HEK cells inducibly expressing TRPV1; conditions: for calcium flux (Fluo-4 RFU) in TRPV1-expressing HEK cells: stimulus applied to cell culture medium, mixtures at Table 1 concentrations; for AUC of calcium response curve, first application: AUC (between 20-300 nM), compound first introduced to TRPV1-expressing cells; for suppression of later calcium response by pre-incubation (desensitization): 24 hours pre-incubation with the same compound; for concentration inducing calcium influx to a similar degree (by AUC): AUC between 20 and 300 nM of calcium response curves; for AUC of calcium response after 24 hours incubation with the same compound: cells incubated with compound for 24 hours, then re-stimulated
T1 construct: FLAG; expressed in transfected cells; host or cells: TRex HEK293 (HEK293 stably carrying pcDNA6TR), induced with tetracycline
T1 sequence (O35433 whole entry): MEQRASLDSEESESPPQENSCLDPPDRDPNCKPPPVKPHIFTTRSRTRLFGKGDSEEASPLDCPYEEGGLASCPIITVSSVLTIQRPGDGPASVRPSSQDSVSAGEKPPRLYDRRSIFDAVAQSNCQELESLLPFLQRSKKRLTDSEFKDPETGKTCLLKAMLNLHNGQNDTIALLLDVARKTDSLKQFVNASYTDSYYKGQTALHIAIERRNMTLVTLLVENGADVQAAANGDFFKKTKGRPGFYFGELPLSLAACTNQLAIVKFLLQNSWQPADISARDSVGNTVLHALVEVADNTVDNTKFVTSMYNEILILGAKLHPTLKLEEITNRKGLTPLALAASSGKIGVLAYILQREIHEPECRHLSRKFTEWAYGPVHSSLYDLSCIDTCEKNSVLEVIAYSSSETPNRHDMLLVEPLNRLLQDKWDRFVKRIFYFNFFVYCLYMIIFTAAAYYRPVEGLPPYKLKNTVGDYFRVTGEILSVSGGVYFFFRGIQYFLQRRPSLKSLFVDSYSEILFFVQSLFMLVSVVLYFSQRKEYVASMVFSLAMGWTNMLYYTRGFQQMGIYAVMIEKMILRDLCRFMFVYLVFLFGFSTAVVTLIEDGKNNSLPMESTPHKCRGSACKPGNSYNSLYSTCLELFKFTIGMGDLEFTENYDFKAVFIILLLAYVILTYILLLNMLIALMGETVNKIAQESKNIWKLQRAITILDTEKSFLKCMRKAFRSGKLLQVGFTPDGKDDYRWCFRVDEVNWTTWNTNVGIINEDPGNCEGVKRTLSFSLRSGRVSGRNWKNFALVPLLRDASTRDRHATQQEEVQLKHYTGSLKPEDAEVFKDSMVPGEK
Procedure: The HEK293 cell line was stably transfected with the pcDNA6TR (Invitrogen, CA) plasmid (encoding the tetracycline-sensitive TREx repressor protein), and was maintained in DMEM+10% fetal bovine serum (inactivated at 55° C. for 1 h)+2 mM glutamine in humidified 5% CO2 atmosphere at 37° C. Selection pressure on the TRex 293 cells was maintained by continuous culture in 10 μg/ml Blasticidin (Sigma, St Louis, Mo.).
For production of TRex HEK293 cells with inducible expression of TRPV1, parental cells were electroporated with the rat TRPV1 cDNA in the pcDNA4TO vector and clonal cell lines were selected by limiting dilution in the presence of 400 μg/ml zeocin (Invitrogen, CA). TRPV1 expression was induced using 1 μg/ml tetracycline for 16 h at 37° C.
(§1) Calcium responses mediated by TRPV1 were tested by calcium assay in the cell culture system. Cells were washed and incubated with 0.2 μM fluo-4 acetoxymethyl ester (“Fluo-4”) for 30 minutes at 37° C. in a standard modified Ringer's solution of the following composition (in mM): NaCl 145, KCl 2.8, CsCl 10, CaCl2 10, MgCl2 2, glucose 10, Hepes.NaOH 10, pH 7.4, 330 mOsm. Cells were transferred to 96-well plates at 50,000 cells/well and stimulated as indicated. Calcium signals were acquired using a Flexstation 3 (Molecular Devices, Sunnydale, USA). Data was analyzed using SoftMax® Pro 5 (Molecular Devices). Where indicated, nominally calcium-free external conditions were achieved by the preparation of 0 mM CaCl2 Ringer solution containing 1 mM EGTA. Where indicated, capsaicin (10 μM) and ionomycin (500 nM) were used as positive controls to induce calcium responses. Capsazepine (10 μM) was used where indicated to specifically antagonize TRPV1-mediated calcium responses. Where indicated, baseline traces (no stimulation, NS) were subtracted. Where indicated, vehicle alone traces were subtracted. Where indicated, vehicle comprising various diluents matched to corresponding mixtures was used as a negative control.

[2] = system: HEK wild type cells; assay: Calcium flux (Fluo-4) in wild-type HEK cells without TRPV1 construct; conditions: same stimulus conditions as TRPV1-expressing cells
Procedure: as §1

[3] = target: T1, TRPV1; assay: Whole-cell patch clamp in single HEK293 cells overexpressing TRPV1; conditions: for outward current relative to inward current: then 1 μM capsaicin; for inward current: average of 6 independent experiments
Procedure: HEK293 cells were kept in sodium-based extracellular Ringer's solution containing 140 mM NaCl, 1 mM CaCl2, 2 mM MgCl2, 2.8 mM KCl, 11 mM glucose, and 10 mM HEPES-NaOH, pH 7.2 and osmolarity 300 mOsmol. The cells' cytosol was perfused with intracellular patch pipette solution containing 140 mM Cs-glutamate, 8 mM NaCl, 1 mM MgCl2, 3 mM MgATP, and 10 mM HEPES-CsOH. The standard internal Ca^2+ concentration was buffered to 180 nM with 4 mM Ca and 10 mM BAPTA. The level of free unbuffered Ca was adjusted using the calculator provided with WebMaxC (http://www.stanford.edu/˜cpatton/webmaxcS.htm). The pH of the final solution was adjusted to pH 7.2 and osmolarity measured at 300 mOsmol.
1 μM capsaicin was used as a positive control for TRPV1 activation. Rapid extracellular solution application and exchange was performed with the SmartSquirt delivery system (Auto-Mate Scientific, San Francisco). The system includes a ValveLink TTL interface between the electronic valves and the EPC-9 amplifier (HEKA, Lambrecht, Germany). This configuration allows for programmable solution changes via the PatchMaster software (HEKA, Lambrecht, Germany).
Patch-clamp experiments were performed in the whole-cell configuration at 21-25° C. Patch pipettes had resistances of 2-3 MΩ. Data was acquired with PatchMaster software controlling an EPC-9 amplifier. Voltage ramps of 50 ms spanning the voltage range from −100 to 100 mV were delivered from a holding potential of 0 mV at a rate of 0.5 Hz over a period of […]. Voltages were corrected for a liquid junction potential of 10 mV. Currents were filtered at 2.9 kHz and digitized at 100 μs is intervals. Capacitive currents were determined and corrected before each voltage ramp. The development of currents for a given potential was extracted from individual ramp current records by measuring the current amplitudes at voltages of −80 mV and +80 mV. Data were analyzed with FitMaster (HEKA, Lambrecht, Germany), and IgorPro (WaveMetrics, Lake Oswego, Oreg., USA). Where applicable, statistical errors of averaged data are given as mean±s.e.m.

[4] = pre-incubation with 500 nM ionomycin

SMILES: CCCCCc1cc(O)c(C/C=C(\C)CCC=C(C)C)c(O)c1C(=O)O [cannabigerolic acid]
calcium flux (Fluo-4 RFU) in TRPV1-expressing HEK cells [1]: calcium flux was detected
calcium flux in wild-type HEK cells without TRPV1 [2]: only minimal or absent

SMILES: CCCCCc1cc(O)c2c(c1)OC(C)(CCC=C(C)C)C=C2 (centres unmarked) [cannabichromene]
calcium flux (Fluo-4 RFU) in TRPV1-expressing HEK cells [1]: calcium flux was detected
calcium flux in wild-type HEK cells without TRPV1 [2]: only minimal or absent

SMILES: C=C(C)[C@@H]1CCC(C)=C[C@H]1c1c(O)cc(CCCCC)c(C(=O)O)c1O [cannabidiolic acid]
calcium flux (Fluo-4 RFU) in TRPV1-expressing HEK cells [1]: calcium flux was detected
calcium flux in wild-type HEK cells without TRPV1 [2]: only minimal or absent

calcium flux (Fluo-4 RFU) in TRPV1-expressing HEK cells [1]: significant calcium flux was detected
calcium flux (Fluo-4 RFU) in TRPV1-expressing HEK cells ([1]; listed as Nerolidol): more modest agonist activity
SMILES: C=CC(C)(O)CCC=C(C)CCC=C(C)C (centres unmarked) [nerolidol]

SMILES: C=C(C)[C@@H]1CCC(C)=C[C@H]1c1c(O)cc(CCCCC)cc1O [cannabidiol]
calcium flux (Fluo-4 RFU) in TRPV1-expressing HEK cells [1]: calcium flux was detected
calcium flux in wild-type HEK cells without TRPV1 [2]: only minimal or absent

SMILES: C[C@H](CCC(=O)O)C[C@H](C)C[C@H](C)C(=O)/C=C(\O)[C@H](C)C[C@H](C)C/C=C/[C@@H](C)[C@@H](O)[C@@H](C)[C@@H](O)C[C@@H]1CC[C@@](C)([C@H]2CC[C@@](C)([C@@H](C)O)O2)O1 [ionomycin, reference compound]
AUC of calcium response curve, first application [1]: 128
reduction of later calcium influx in response to capsaicin [1, 4]: 38%
reduction of later calcium influx in response to myrcene [1, 4]: 27%

effect on calcium flux induced by myrcene ([1]; 10 μM capsazepine added to cells activated with 3.5 μm/ml myrcene): diminished
SMILES: Oc1cc2c(cc1O)CN(C(=S)NCCc1ccc(Cl)cc1)CCC2 [capsazepine, reference compound]

SMILES: C=C(C)[C@@H]1CCC(C)=C[C@H]1c1c(O)cc(CCC)cc1O [cannabidivarin]
calcium flux (Fluo-4 RFU) in TRPV1-expressing HEK cells [1]: calcium flux was detected
calcium flux in wild-type HEK cells without TRPV1 [2]: only minimal or absent

AUC of calcium response curve, first application [1]: 66
concentration inducing calcium influx to a similar degree (by AUC) [1]: about 200 nM
AUC of calcium response after 24 hours incubation with the same compound [1]: 32
calcium-mediated fluorescence under calcium-free medium conditions, high concentration ([1]; myrcene 3.5 μg/ml, calcium-free medium): induced such increase
calcium responses to different concentrations of myrcene ([1]; myrcene 3.5 μm/ml, 1.75 μg/ml, 0.875 μm/ml and 0.43 μm/ml): dose-dependent
calcium flux (Fluo-4 RFU) in TRPV1-expressing HEK cells [1]: significant calcium flux was detected
inward current ([3]; 5 μM myrcene, 1 mM Ca): approximately 0.5 nA
current induced ([3]; 5 μM, 10 μM and 150 μM myrcene): 0.5-2.2 nA
current response in individual cells to increasing myrcene ([3]; 5 μM, 10 μM, 150 μM myrcene): dose-dependent response
TRPV1 channel permeation state activated ([3]; IV relationship, State 1 vs State 2 (dilated)): primarily in State 1
SMILES: C=CC(=C)CCC=C(C)C [myrcene, 7-methyl-3-methylideneocta-1,6-diene]
suppression of later calcium response by pre-incubation (desensitization) [1]: 52%
calcium-mediated fluorescence under calcium-free medium conditions, low concentrations ([1]; myrcene 0.43, 0.875 and 1.75 μg/ml, calcium-free medium): did not cause increase of calcium-mediated fluorescence
calcium flux in wild-type HEK cells without TRPV1 [2]: much smaller
outward current relative to inward current ([3]; 5 μM myrcene): at a lower amplitude than the inward current

AUC of calcium response curve, first application [1]: 124
concentration inducing calcium influx to a similar degree (by AUC) [1]: about 30 nM
AUC of calcium response after 24 hours incubation with the same compound [1]: 38
calcium flux (Fluo-4 RFU) in TRPV1-expressing HEK cells [1]: capsaicin-specific calcium fluxes
current induced ([3]; 1 μM capsaicin (not shown)): 4-10 nA
inward current ([3]; 1 μM capsaicin applied after myrcene): approximately 9 nA
SMILES: COc1cc(CNC(=O)CCCC/C=C/C(C)C)ccc1O [capsaicin, reference compound]
suppression of later calcium response by pre-incubation (desensitization) [1]: 69%
outward current relative to inward current ([3]; 5 μM myrcene): at a lower amplitude than the inward current
